Literature values as cited in the PKSmart pharmacokinetics tables (Seal et al. 2025).

Assay: Lombardo, Berellini, Obach 2018, Drug Metab Dispos 46:1466, doi 10.1124/dmd.118.082966
Settings: human; for MRT / Vd / clearance / half-life: in vivo, iv; for fraction unbound: plasma

Structure (SMILES)	MRT [h]	Vd [L/kg]	clearance [mL/min/kg]	half-life [h]	fraction unbound
O=C(NC[C@H]1CN(c2ccc(N3CCOCC3=O)cc2)C(=O)O1)c1ccc(Cl)s1	4.9	0.7	2.4	7	0.06
Cn1c(COP(=O)(NCCBr)NCCBr)cnc1[N+](=O)[O-]	0.72	0.64	14.8	1	–
C=CCN1CC[C@]23c4c5ccc(O)c4OC2C(=O)CC[C@@]3(O)[C@H]1C5 (stereo not given in full)	1.2	1.7	–	1.1	0.54
COC[C@@H](O)CN(C(C)=O)c1c(I)c(C(=O)NC[C@H](O)CO)c(I)c(C(=O)NC[C@H](O)CO)c1I	2.64	0.2	1.27	2.04	1
CN(CCCCCCN(C)C(=O)Oc1ccc[n+](C)c1)C(=O)Oc1ccc[n+](C)c1	82.4	1	0.2	59.8	–
COc1ccc2c3c1O[C@H]1[C@@H](O)CC[C@H]4[C@@H](C2)N(C)CC[C@@]341	4.08	1.07	4.21	3.42	–
CC[C@H](c1ccccc1)c1c(O)c2ccccc2oc1=O	182	0.2	0.02	126	0.57
COc1cccc2c1[C@H](CO)N1[C@H](C#N)[C@@H]3CC(C(=O)O)[C@H]([C@@H]1C2)N3C (stereo not given in full)	1.23	0.23	3.06	1.52	–
CC1(C)S[C@@H]2C(NC(=O)C(c3ccccc3)S(=O)(=O)O)C(=O)N2C1C(=O)O (stereo not given in full)	1.6	0.15	1.6	1.2	0.5
CC[C@]1(O)C[C@@H]2CN(CCc3c([nH]c4ccccc34)[C@@](C(=O)OC)(c3cc4c(cc3OC)N(C)[C@H]3[C@@](O)(C(=O)OC)[C@H](OC(C)=O)[C@]5(CC)C=CCN6CC[C@]43[C@@H]65)C2)C1	150	28	–	67	–
O=C(O)C[C@H](O)C[C@H](O)/C=C/c1c(C2CC2)nc2ccccc2c1-c1ccc(F)cc1	2.7	0.9	5.85	4.6	0.005
Cc1cc(F)ccc1[C@H]1CNCCN1C(=O)N(C)[C@H](C)c1cc(C(F)(F)F)cc(C(F)(F)F)c1	12.8	3.8	5.09	10	–
CCN(CC)CC(=O)Nc1c(C)cccc1C	1.9	–	–	–	–
COc1cccc(OC)c1C(=O)NC1C(=O)N2C(C(=O)O)C(C)(C)S[C@H]12 (stereo not given in full)	0.8	0.32	6.6	0.64	0.43
Nc1c2c(nc3ccccc13)CCCC2	3.3	11	56	3.3	0.25
Cn1cc(NC(=O)Nc2cc(C(=O)Nc3cc(C(=O)Nc4ccc5cc(S(=O)(=O)O)cc(S(=O)(=O)O)c5c4)n(C)c3)n(C)c2)cc1C(=O)Nc1cc(C(=O)Nc2ccc3cc(S(=O)(=O)O)cc(S(=O)(=O)O)c3c2)n(C)c1	960	0.27	0.0047	730	–
CC(C)NC[C@@H](O)COc1cccc2c1N(C(=O)c1cccnc1)CCC2	3.1	0.67	3.6	12.4	–
C[C@]12CCC(=O)C=C1CC[C@@H]1[C@@H]2[C@@H](O)C[C@@]2(C)[C@H]1CC[C@]2(O)C(=O)CO	1.9	0.38	5.7	1.6	–
Nc1nc(=O)c2c([nH]1)NC[C@H](CNc1ccc(C(=O)NC(CCC(=O)O)C(=O)O)cc1)N2C=O (stereo not given in full)	1.1	0.27	4.1	1.1	–
Cc1c[nH]c2c(O)cc3c(c12)[C@H](CCl)CN3C(=O)c1cc2cc(NC(=O)Nc3ccc4[nH]c(C(=O)N5C[C@@H](CCl)c6c5cc(O)c5[nH]cc(C)c65)cc4c3)ccc2[nH]1	1.7	0.05	0.5	1.6	–
COc1ccccc1OCCNCC(O)COc1cccc2[nH]c3ccccc3c12 (stereo not given)	2.8	1.3	7.8	2.4	–
CN1[C@@H]2CCC[C@H]1C[C@@H](NC(=O)c1nn(C)c3ccccc13)C2	6.7	3.7	9.1	5.2	–
O=C(Cc1cccs1)NC1C(=O)N2C(C(=O)[O-])=C(C[n+]3ccccc3)CS[C@H]12 (stereo not given in full)	2.3	0.46	3.3	1.5	0.8
O=C(NC1CC[C@@H](c2cccc(F)c2F)CN(CC(F)(F)F)C1=O)N1CCC(n2c(=O)[nH]c3ncccc32)CC1 (stereo not given in full)	2.5	0.86	5.8	8.2	–
